Measured values taken from patent publication US12486278B2, “MASP-2 inhibitors and methods of use” (Omeros Corporation, priority 2019, dated 2025).
Structures can show the parent of a compound that is named as a salt.

Target: T1, MASP-2 (CCP1-CCP2-SP) (Homo sapiens, UniProt O00187)
T1 construct: 15 μL of Enzyme MASP-2 (CCP1-CCP2-SP) in Assay Buffer
Experiment: Enzymatic Assay for MASP-2 (fluorogenic substrate)
Type: biochemical
Conditions: fluorogenic substrate based on C2 cleavage site; room temperature, 20 min; 20 mM HEPES pH 7.4, 140 mM NaCl, 0.1% Tween 20
Description: The MASP-2 assay utilizes a fluorogenic substrate, based on the cleavage site for its natural substrate C2. The assay is run at room temperature in an assay buffer containing 20 mM HEPES, pH 7.4, 140 mM NaCl and 0.1% Tween 20. Assay parameters are adjusted such that the assay is linear with respect to time, enzyme, and substrate concentrations. Under these optimized assays conditions, IC50 values are equivalent to Ki values, except in a few cases of “tight binding” inhibitors. Cases of “tight binding” or possible “slow binding” inhibitors are handled by the methods described in Copeland R. A. (2013) Evaluation of Enzyme Inhibitors in Drug Discovery. 2nd Ed., John Wiley and Sons, Inc., Chapters 5-7.
The MASP-2 assay protocol is carried out as follows. Test compounds are serially diluted in DMSO and then 100 nL of each dilution is transferred to the assay plate(s). 10 μL of Assay Buffer is added, followed by 15 μL of Enzyme MASP-2 (CCP1-CCP2-SP) in Assay Buffer. 15 μL of Substrate in Assay Buffer is then added and mixed to start the reactions. After 20 min at room temperature, 15 μL of a stop solution (0.1 M acetic acid) is added, mixed and the plates are read on a SpectraMax i3x Microplate Reader and exported as Excel files. Each assay plate included a “no inhibitor” (DMSO Only) control, a “no enzyme” control and a reference inhibitor control. % Activity values=100*(average test comp. fluorescence−average “no enzyme” fluorescence)/(average “DMSO only” fluorescence−average “no enzyme” fluorescence). IC50 and Ki values are very reproducible, falling well within ±2-fold.

T1 sequence (O00187 445-686 limits assumed): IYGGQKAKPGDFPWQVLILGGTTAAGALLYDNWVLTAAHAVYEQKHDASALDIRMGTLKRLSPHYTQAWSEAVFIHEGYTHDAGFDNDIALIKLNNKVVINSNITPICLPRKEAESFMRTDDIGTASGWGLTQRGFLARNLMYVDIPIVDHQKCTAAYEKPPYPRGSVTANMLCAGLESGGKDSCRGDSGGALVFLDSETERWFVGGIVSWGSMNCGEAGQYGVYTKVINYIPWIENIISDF
T1 sequence (O00187 298-444 partner limits assumed): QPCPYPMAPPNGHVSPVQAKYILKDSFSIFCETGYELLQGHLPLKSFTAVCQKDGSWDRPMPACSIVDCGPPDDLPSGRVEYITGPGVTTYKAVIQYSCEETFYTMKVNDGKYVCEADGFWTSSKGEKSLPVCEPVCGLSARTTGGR

| Ki [nM] | Compound |
| --- | --- |
| < 500 | Cc1nc(N)ccc1CNC(=O)[C@H](C)NC(=O)[C@H]1C[C@H](Cc2cccc(C3CC3)c2)CN1 [Compound I-44, (2R,4S)—N—((S)-1-(((6-Amino-2-Methylpyridin-3-Yl)Methyl)Amino)-1-Oxopropan-2-Yl)-4-(3-Cyclopropylbenzyl)Pyrrolidine-2-Carboxamide Di-Trifluoroacetate] |
| < 500 | CCN1C[C@@H](Cc2ccc(F)c(Cl)c2)C[C@@H]1C(=O)N[C@@H](C)C(=O)NCc1cnc2[nH]cc(Cl)c2c1 [Compound I-27, (2R,4S)—N—((S)-1-(((3-Chloro-1H-Pyrrolo[2,3-B]Pyridin-5-Yl)Methyl)Amino)-1-Oxopropan-2-Yl)-4-(3-Chloro-4-Fluorobenzyl)-1-Ethylpyrrolidine-2-Carboxamide] |
| < 500 | C[C@H](NC(=O)[C@H]1C[C@@H](c2ccccc2)CCN1CCC(=O)O)C(=O)NCc1cc2cnccc2[nH]1 [Compound I-107, 3-((2R,4S)-2-(((S)-1-(((1H-pyrrolo[3,2-c]pyridin-2-yl)methyl)amino)-1-oxopropan-2-yl)carbamoyl)-4-phenylpiperidin-1-yl)propanoic acid di-trifluoroacetate salt] |
| < 500 | Cc1nc(N)ccc1CNC(=O)[C@@H]1CCN1C(=O)[C@H]1C[C@@H](c2cccc(-c3ccccc3)c2)CCN1 [Compound I-65, (S)-1-((2R,4S)-4-([1,1′-Biphenyl]-3-Yl)Piperidine-2-Carbonyl)-N-((6-Amino-2-Methylpyridin-3-Yl)Methyl)Azetidine-2-Carboxamide Di-Trifluoroacetate] |
| < 500 | CC(NC(=O)[C@H]1C[C@@H](c2ccccc2)CCN1CC(=O)O)C(=O)NCc1cc2cnccc2[nH]1 (stereo in doubt) [Compound I-104, 2-((2R,4S)-2-(((R)-1-(((1H-pyrrolo[3,2-c]pyridin-2-yl)methyl)amino)-1-oxopropan-2-yl)carbamoyl)-4-phenylpiperidin-1-yl)acetic acid di-trifluoroacetate] |
| < 500 | C[C@H](NC(=O)[C@H]1C[C@H](c2cccc(CO)c2)CN1)C(=O)NCc1ccc(C(=N)N)cc1 [Compound I-94, (2R,4R)—N—((S)-1-((4-Carbamimidoylbenzyl)Amino)-1-Oxopropan-2-Yl)-4-(3-(Hydroxymethyl)Phenyl)Pyrrolidine-2-Carboxamide Di-Trifluoroacetate] |
| 2500 to 10000 | C[C@H](NC(=O)[C@H]1C[C@H](c2ccccc2)CN1)C(=O)NCc1cc2ccncc2[nH]1 [Compound I-3, (2R,4R)—N—((S)-1-(((1H-pyrrolo[2,3-c]pyridin-2-yl)methyl)amino)-1-oxopropan-2-yl)-4-phenylpyrrolidine-2-carboxamide di-trifluoroacetate] |
| < 500 | C[C@H](NC(=O)[C@H]1C[C@@H](c2ccccc2)CCN1)C(=O)NCc1cc2c(s1)CNC2 [Compound I-98, (2R,4S)—N—((S)-1-(((5,6-Dihydro-4H-Thieno[2,3-C]Pyrrol-2-Yl)Methyl)Amino)-1-Oxopropan-2-Yl)-4-Phenylpiperidine-2-Carboxamide Di-Trifluoroacetate Salt] |
| < 500 | Cc1nc(N)ccc1CNC(=O)[C@@H]1CCN1C(=O)[C@H]1C[C@@H](c2ccccc2)CCN1 [Compound I-63, (S)—N-((6-Amino-2-Methylpyridin-3-Yl)Methyl)-1-((2R,4S)-4-Phenylpiperidine-2-Carbonyl)Azetidine-2-Carboxamide Di-Trifluoroacetate] |
| < 500 | C[C@H](NC(=O)c1cc(Cc2ccc(-c3ccccc3)cc2)c[nH]1)C(=O)NCc1ccc(C(=N)N)cc1 [Compound I-100, (S)-4-([1,1′-Biphenyl]-4-ylmethyl)-N-(1-((4-carbamimidoylbenzyl)amino)-1-oxopropan-2-yl)-1H-pyrrole-2-carboxamide trifluoroacetate] |
| < 500 | C[C@H](NC(=O)[C@H]1C[C@H](Cc2cccc(Cl)c2)CN1)C(=O)NCc1cnc2[nH]cc(Cl)c2c1 [Compound I-82, (2R,4S)—N—((S)-1-(((3-Chloro-1H-Pyrrolo[2,3-B]Pyridin-5-Yl)Methyl)Amino)-1-Oxopropan-2-Yl)-4-(3-Chlorobenzyl)Pyrrolidine-2-Carboxamide Dihydrochloride] |
| < 500 | CC(NC(=O)[C@H]1C[C@@H](c2ccccc2)CCN1CC(=O)O)C(=O)NCc1cc2cnccc2[nH]1 (stereo in doubt) [Compound I-105, 2-((2R,4S)-2-(((S)-1-(((1H-pyrrolo[3,2-c]pyridin-2-yl)methyl)amino)-1-oxopropan-2-yl)carbamoyl)-4-phenylpiperidin-1-yl)acetic acid di-trifluoroacetate] |
| < 500 | C[C@H](NC(=O)[C@H]1C[C@@H](c2ccc3ccccc3c2)CCN1)C(=O)NCc1ccc(C(=N)N)cc1 [Compound I-70, (2R,4S)—N—((S)-1-((4-Carbamimidoylbenzyl)Amino)-1-Oxopropan-2-Yl)-4-(Naphthalen-2-Yl)Piperidine-2-Carboxamide Di-Trifluoroacetate] |
| < 500 | CCN1C[C@@H](Cc2ccc(F)c(Cl)c2)C[C@@H]1C(=O)N[C@@H](C)C(=O)NCc1cnc2c(c1)c(Cl)cn2C [Compound I-26, (2R,4S)—N—((S)-1-(((3-Chloro-1-Methyl-1H-Pyrrolo[2,3-B]Pyridin-5-Yl)Methyl)Amino)-1-Oxopropan-2-Yl)-4-(3-Chloro-4-Fluorobenzyl)-1-Ethylpyrrolidine-2-Carboxamide] |
| < 500 | C[C@H](NC(=O)[C@H]1C[C@H](Cc2cccc(Cl)c2)CN1)C(=O)NCc1cc2cnccc2[nH]1 [Compound I-5, (2R,4S)—N—((S)-1-(((1H-Pyrrolo[3,2-c]pyridin-2-yl)methyl)amino)-1-oxopropan-2-yl)-4-(3-chlorobenzyl)pyrrolidine-2-carboxamide di-trifluoroacetate] |
| < 500 | COC(=O)c1ccc(C[C@@H]2CN[C@@H](C(=O)N[C@@H](C)C(=O)NCc3ccc(N)nc3C)C2)cc1 [Compound I-50, Methyl 4-(((3S,5R)-5-(((S)-1-(((6-Amino-2-Methylpyridin-3-Yl)Methyl)Amino)-1-Oxopropan-2-Yl)Carbamoyl)Pyrrolidin-3-Yl)Methyl)Benzoate Dihydrochloride] |
| < 500 | O=C(NCc1cc(Cl)ccc1-n1cnnn1)[C@@H]1CCN1C(=O)[C@H]1C[C@@H](c2ccc(-c3ccccc3)cc2)CCN1 [Compound I-103, (S)-1-((2R,4S)-4-([1,1′-Biphenyl]-4-yl)piperidine-2-carbonyl)-N-(5-chloro-2-(1H-tetrazol-1-yl)benzyl)azetidine-2-carboxamide trifluoroacetate] |
| < 500 | C[C@H](NC(=O)[C@H]1C[C@@H](c2cccc(-n3cccn3)c2)CCN1)C(=O)NCc1cc2cnccc2[nH]1 [Compound I-80, (2R,4S)-4-(3-(1H-Pyrazol-1-Yl)Phenyl)-N—((S)-1-(((1H-Pyrrolo[3,2-C]Pyridin-2-Yl)Methyl)Amino)-1-Oxopropan-2-Yl)Piperidine-2-Carboxamide Dihydrochloride] |
| < 500 | Cc1nc(N)ccc1CNC(=O)[C@H](C)NC(=O)[C@H]1C[C@H](Cc2cc(Cl)cs2)CN1 [Compound I-87, (2R,4R)—N—((S)-1-(((6-Amino-2-Methylpyridin-3-Yl)Methyl)Amino)-1-Oxopropan-2-Yl)-4-((4-Chlorothiophen-2-Yl)Methyl)Pyrrolidine-2-Carboxamide Dihydrochloride] |
| < 500 | C[C@H](NC(=O)[C@H]1C[C@H](Cc2ccc(F)cc2)CN1CCC(=O)O)C(=O)NCc1ccc(C(=N)N)cc1 [Compound I-37, 3-((2R,4S)-2-(((S)-1-((4-Carbamimidoylbenzyl)Amino)-1-Oxopropan-2-Yl)Carbamoyl)-4-(4-Fluorobenzyl)Pyrrolidin-1-Yl)Propanoic Acid Di-Trifluoroacetate] |
| < 500 | C[C@H](NC(=O)[C@H]1C[C@H](C2(c3ccccc3)CC2)CN1)C(=O)NCc1cc2cnccc2[nH]1 [Compound I-8, (2R,4R)—N—((S)-1-(((1H-Pyrrolo[3,2-C]Pyridin-2-Yl)Methyl)Amino)-1-Oxopropan-2-Yl)-4-(1-Phenylcyclopropyl)Pyrrolidine-2-Carboxamide Di-Trifluoroacetate] |
| < 500 | C[C@H](NC(=O)[C@H]1C[C@H](Cc2ccnc(N)c2)CN1)C(=O)NCc1ccc(C(=N)N)cc1 [Compound I-56, (2R,4S)-4-((2-Aminopyridin-4-Yl)Methyl)-N—((S)-1-((4-Carbamimidoylbenzyl)Amino)-1-Oxopropan-2-Yl)Pyrrolidine-2-Carboxamide Di-Trifluoroacetate] |
| < 500 | C[C@H](NC(=O)[C@H]1C[C@H](c2ccccc2)CN1)C(=O)NCc1ccc(C(=N)N)cc1Cl [Compound I-24, (2R,4R)—N—((S)-1-((4-Carbamimidoyl-2-Chlorobenzyl)Amino)-1-Oxopropan-2-Yl)-4-Phenylpyrrolidine-2-Carboxamide Di-Trifluoroacetate] |
| < 500 | Cc1cc(C)n(-c2ccc([C@H]3CCN[C@@H](C(=O)N[C@@H](C)C(=O)NCc4ccc(C(=N)N)cc4)C3)cc2)n1 [Compound I-75, (2R,4S)—N—((S)-1-((4-Carbamimidoylbenzyl)Amino)-1-Oxopropan-2-Yl)-4-(4-(3,5-Dimethyl-1H-Pyrazol-1-Yl)Phenyl)Piperidine-2-Carboxamide Dihydrochloride] |
